A short description of assay [1]: viability of uninfected HEp-2 cells – cell-based, HTS, cytotoxicity control for RSV inhibitor project, dose response (AID 2410). The class given is functional. The following applies: human respiratory syncytial virus.
The target in assay [2] is T1, Heat shock factor protein 1 (Mus musculus, UniProt P38532).
T1 sequence (P38532 whole entry): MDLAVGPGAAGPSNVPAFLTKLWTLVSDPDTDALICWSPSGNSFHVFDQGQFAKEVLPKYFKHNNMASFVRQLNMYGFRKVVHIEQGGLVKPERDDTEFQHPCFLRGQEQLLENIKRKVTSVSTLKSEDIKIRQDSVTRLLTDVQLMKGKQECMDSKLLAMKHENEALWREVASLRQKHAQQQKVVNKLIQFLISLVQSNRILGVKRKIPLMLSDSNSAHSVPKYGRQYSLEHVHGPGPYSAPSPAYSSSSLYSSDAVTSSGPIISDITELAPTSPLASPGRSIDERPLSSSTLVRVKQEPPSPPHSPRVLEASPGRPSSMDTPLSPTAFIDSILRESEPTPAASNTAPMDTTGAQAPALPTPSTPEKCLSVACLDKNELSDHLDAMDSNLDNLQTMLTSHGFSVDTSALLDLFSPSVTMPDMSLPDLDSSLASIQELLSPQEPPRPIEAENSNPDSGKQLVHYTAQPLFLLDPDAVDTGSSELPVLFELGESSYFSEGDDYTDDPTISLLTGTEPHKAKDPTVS
Description: enhancement of HSF1-driven luciferase signal – cell-based, NIH3T3, luminescence, dose retest, confirmation (AID 435004).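 Also: stress induced by proteasome inhibitor MG132 added 30 min after compound; luciferase reporter driven by HSF1 response element in NIH3T3 cells; actives raise luminescence as potentiators of the MG132 stress response.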 The class given is functional.

Another assay has as its system H9c2. Description: cells. Format: functional, cell-based. Particulars: Rattus norvegicus, H9c2, Myocardium.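 Also: confirmatory concentration-response retest of ultra-high-throughput screening hits for modulation of myocardial damage; cell death induced by hydrogen peroxide oxidative stress; compound pretreatment for 60 min then peroxide exposure for 2 h; potency is for protecting the cells against peroxide damage rather than for killing them.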
Assay [3] is described as follows: Luminescence Cell-Based Dose Confirmation HTS to Identify Activators of 5'UTR Stem-Loop Driven Alpha-Synuclein mRNA Translation in H4 Neuroglioblastoma Cells. [Related pubchem assays: 1829 (Project Summary), 1814 (Primary HTS)]. The class given is functional.
Assay [4] is described as follows: Luminescence Cell-Based Dose Response HTS to Identify Activators of Luciferase Translation or Activity in H4 […] Cells. [Related pubchem assays: 1829 (Project Summary), 1814 (Primary HTS)]. Format: functional.
A further assay deals with H4. Description: Luminescence Cell-Based Dose Response HTS to Identify Activators of 5'UTR Stem-Loop Driven Prion Protein mRNA Translation in H4 Neuroglioblastoma Cells. [Related pubchem assays: 1829 (Project Summary), 1814 (Primary HTS)]. Format: functional. The following applies: Homo sapiens.
Another assay has as its target Paired box protein Pax-8 (Homo sapiens, UniProt Q06710). Description: PAX8 transcriptional activity inhibition in RMG-I – RMG-I cells, luciferase, cherry-pick, dose response (AID 687027).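 Also: luciferase reporter driven by Pax8 target thyroperoxidase promoter measured by SteadyGlo luminescence.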 Format: functional, cell-based.
Assay [5] in a line: NIH3T3 cell viability loss – ATP luminescence, mouse fibroblasts, counter-screen, dose response (AID 2010).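 Also: cells exposed to compound for about 90 hours before reading.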 Format: functional, cell-based.
Assay [6] in a line: Trypanosoma cruzi growth suppression in host cells – NIH3T3 host cells, beta-gal luminescence, confirmation (AID 2044).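 Also: intracellular parasites grown in NIH/3T3 mouse fibroblasts as host cells; luminescent beta-galactosidase reporter signal from transgenic T. cruzi replicating inside host cells; inhibitors lower the luminescence signal.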 The class given is functional, cell-based.
The nature of assay [7]: Luminescence Cell-Based Dose Retest to Confirm Inhibitors of Cancer Stem Cells. [Related pubchem assays (depositor defined):AID2717, AID2721]. The class given is functional. The following applies: Homo sapiens.
Assay [8] addresses T2, Rac GTPase-activating protein 1 (Homo sapiens, UniProt Q9H0H5).
T2 sequence (Q9H0H5 whole entry): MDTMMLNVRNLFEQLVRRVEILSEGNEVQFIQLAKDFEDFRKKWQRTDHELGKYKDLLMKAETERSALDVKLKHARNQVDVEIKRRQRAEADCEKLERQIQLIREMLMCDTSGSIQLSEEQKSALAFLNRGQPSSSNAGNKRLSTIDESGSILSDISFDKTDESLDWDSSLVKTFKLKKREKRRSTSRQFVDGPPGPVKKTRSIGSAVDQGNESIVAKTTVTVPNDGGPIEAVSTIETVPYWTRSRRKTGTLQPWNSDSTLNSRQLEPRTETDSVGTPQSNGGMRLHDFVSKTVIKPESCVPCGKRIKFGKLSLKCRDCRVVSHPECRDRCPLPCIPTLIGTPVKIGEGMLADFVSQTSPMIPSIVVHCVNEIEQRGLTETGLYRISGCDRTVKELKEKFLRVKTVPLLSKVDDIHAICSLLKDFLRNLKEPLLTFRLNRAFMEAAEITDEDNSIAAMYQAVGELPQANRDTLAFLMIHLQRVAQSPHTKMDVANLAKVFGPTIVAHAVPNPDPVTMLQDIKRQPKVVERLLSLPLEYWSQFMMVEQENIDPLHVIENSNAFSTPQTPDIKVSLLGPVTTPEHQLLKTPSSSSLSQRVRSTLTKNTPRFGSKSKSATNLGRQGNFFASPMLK
Description: blockers of MgcRacGAP-driven Rac1 GTP hydrolysis – biochemical, ADP Hunter fluorescence, primary and confirmatory, confirmation (AID 624330). Format: functional.

In a further assay the target is T3, Protein skinhead-1 (Caenorhabditis elegans, UniProt P34707).
T3 sequence (P34707 whole entry): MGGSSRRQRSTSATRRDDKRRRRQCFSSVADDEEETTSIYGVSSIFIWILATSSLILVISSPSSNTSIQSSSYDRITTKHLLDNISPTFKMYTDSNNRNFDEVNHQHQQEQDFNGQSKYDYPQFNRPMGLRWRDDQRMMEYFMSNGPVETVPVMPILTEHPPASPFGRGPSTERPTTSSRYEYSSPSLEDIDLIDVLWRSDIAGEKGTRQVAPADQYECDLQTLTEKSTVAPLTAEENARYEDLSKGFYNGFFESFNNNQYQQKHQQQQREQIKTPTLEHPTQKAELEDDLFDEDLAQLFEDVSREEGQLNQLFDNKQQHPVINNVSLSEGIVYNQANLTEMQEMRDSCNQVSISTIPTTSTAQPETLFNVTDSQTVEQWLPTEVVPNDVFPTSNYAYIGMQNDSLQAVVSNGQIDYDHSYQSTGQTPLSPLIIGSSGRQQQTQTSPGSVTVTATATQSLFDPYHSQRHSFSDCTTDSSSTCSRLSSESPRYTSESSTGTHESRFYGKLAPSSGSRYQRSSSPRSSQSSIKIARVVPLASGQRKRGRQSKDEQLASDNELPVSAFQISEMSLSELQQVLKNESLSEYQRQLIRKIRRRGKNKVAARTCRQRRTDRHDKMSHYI
Format: functional.

The test system of a further assay is INS1. Description: INS-1E survival protection against cytokine death – cell-based, luminescence, retest, dose response (AID 449756).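 Also: cell death triggered by IL-1 beta plus TNF-alpha plus IFN-gamma mixture; protective hits raise ATP signal compared with cytokine alone wells.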 The class given is functional. Particulars: Rattus norvegicus.
In assay [9] the target is T4, Corticotropin-releasing factor receptor 2/Corticotropin-releasing factor-binding protein (Homo sapiens, UniProt P24387+Q13324).
T4 sequence (Q13324 whole entry): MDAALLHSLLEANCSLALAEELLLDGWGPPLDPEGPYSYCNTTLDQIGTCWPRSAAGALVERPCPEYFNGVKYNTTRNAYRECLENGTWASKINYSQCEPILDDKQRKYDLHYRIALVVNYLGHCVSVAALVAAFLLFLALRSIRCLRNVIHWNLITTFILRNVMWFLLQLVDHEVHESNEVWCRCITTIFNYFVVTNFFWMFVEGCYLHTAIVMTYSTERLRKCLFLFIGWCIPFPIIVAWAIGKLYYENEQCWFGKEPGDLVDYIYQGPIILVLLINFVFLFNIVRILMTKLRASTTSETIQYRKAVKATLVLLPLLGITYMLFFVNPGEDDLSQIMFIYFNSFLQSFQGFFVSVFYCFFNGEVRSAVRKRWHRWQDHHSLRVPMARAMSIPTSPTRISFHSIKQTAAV
T4 sequence (P24387 whole entry): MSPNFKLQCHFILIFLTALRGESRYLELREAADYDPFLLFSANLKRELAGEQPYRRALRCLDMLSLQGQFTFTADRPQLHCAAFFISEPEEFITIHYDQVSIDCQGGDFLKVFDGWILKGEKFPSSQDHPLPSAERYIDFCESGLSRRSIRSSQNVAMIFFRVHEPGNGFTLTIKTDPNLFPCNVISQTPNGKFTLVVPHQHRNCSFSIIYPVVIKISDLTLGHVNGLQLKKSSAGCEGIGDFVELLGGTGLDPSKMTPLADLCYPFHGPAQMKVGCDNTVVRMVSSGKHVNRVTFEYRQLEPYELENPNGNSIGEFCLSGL
Description: activators of CRF receptor 2 with binding protein – uHTS hits, confirmation (AID 602473). The class given is functional. Particulars: read-out: EC50_Mean.

Active and inactive are the calls of the source.

Paired box protein Pax-8, sequence (Q06710 whole entry): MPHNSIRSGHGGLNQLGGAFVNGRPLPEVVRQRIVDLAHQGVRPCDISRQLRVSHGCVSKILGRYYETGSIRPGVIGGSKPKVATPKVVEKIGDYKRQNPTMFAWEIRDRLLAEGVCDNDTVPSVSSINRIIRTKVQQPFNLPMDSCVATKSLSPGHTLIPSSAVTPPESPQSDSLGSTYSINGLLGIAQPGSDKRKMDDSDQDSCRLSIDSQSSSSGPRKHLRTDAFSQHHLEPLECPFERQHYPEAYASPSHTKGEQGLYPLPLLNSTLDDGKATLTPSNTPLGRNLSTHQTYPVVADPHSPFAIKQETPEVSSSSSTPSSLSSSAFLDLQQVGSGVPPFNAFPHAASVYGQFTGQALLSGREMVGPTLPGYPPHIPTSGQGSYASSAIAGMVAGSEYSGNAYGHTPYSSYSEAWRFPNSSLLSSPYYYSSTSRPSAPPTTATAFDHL

Regarding `COc1cc(C(=O)Sc2ccc(Cl)cc2)cc(OC)c1OC`, the CC50 in [1] is 32.8 µM (active). Besides, the EC50 in assay [2] was 1.49 µM (active). Turning to `CC1CN(c2nn3c(=O)c4ccccc4nc3c3ccccc23)CC(C)O1` (stereo not given), the IC50 in the assay with H9c2 is > 79 µM (inactive). Consider `Cc1ccc(-c2cn(S(=O)(=O)c3ccc(C)cc3)nc2N)cc1`, for which, in [2], the EC50 is > 260 µM (inactive). Turning to `CCOC(=O)C1(Cc2cccc(OC)c2)CCCN(C(=O)c2cc(C)[nH]n2)C1` (stereo not given), the results for the EC50 (in assay [3]; in [4]; in the assay on H4) were 12.5 µM (active), 23.2 µM (active) and > 120 µM (not active), respectively. Take `C[C@H]1CN([C@@H](C)CO)C(=O)Cc2cc(NC(=O)Nc3ccc(C(F)(F)F)cc3)ccc2O[C@H]1CN(C)C(=O)NC1CCCCC1`: at Paired box protein Pax-8, the AC50 was 10.2 µM (active). With `CC(C)c1ccc2[nH]c3c(c2c1)[C@@H]1CCN2C(=O)CCC[C@H](C3)[C@H]12`, the values for the EC50 (in [3]; in assay [4]; in the assay with H4) were 11.9 µM (active), 53.6 µM (active) and > 120 µM (not active), respectively.

For `CN(C)N(Cc1ccccc1)C(=O)C(O)(c1ccccc1)c1ccccc1`, the IC50 in the assay with H9c2 is > 79 µM (inactive). On to `COc1cc2c(cc1OC)C(COc1ccc3c(C)cc(=O)oc3c1)N(C(=O)c1ccco1)CC2` (stereo not given), for which, in the assay on H9c2, the IC50 was > 79 µM (inactive).

`CC(=O)c1ccc(NC(=O)CSc2nc(=O)cc(N)n2-c2ccccc2)cc1`: the EC50 in [3] is 22.5 µM (active); in [4], 12.3 µM (active); in the assay with H4 it was 10.9 µM (active). Take `O=C(NN=Cc1ccc(N2CCOCC2)s1)c1ccc([N+](=O)[O-])cc1`: the IC50 with H9c2 was 13.1 µM (active). On the same count and under the same terms, under `COc1cc(/C=C/C(=O)Nc2ccc3nc4n(c(=O)c3c2)CCCC4)cc(OC)c1OC` stands > 79 µM (inactive).

Turning to `COc1ccc(-c2c(C)c3cc(O)ccc3oc2=O)cc1OC`, in assay [2], the EC50 was > 260 µM (inactive). With `Cc1ccc(O)c(NC(=O)c2onc(C)c2Cl)c1`, the EC50 in [2] was 3.11 µM (active). In the case of `Cc1oc2ccc(NS(=O)(=O)c3ccc(C(C)(C)C)cc3)cc2c1C(=O)Nc1ccccc1`, the EC50 in assay [2] is > 260 µM (inactive). In the case of `CCc1n[nH]c(SCc2ccc(OCC(C)C)cc2)n1`, the EC50 was 22.6 µM (active) in assay [3], 10.2 µM (active) in [4] and > 120 µM (not active) in the assay on H4. In the case of `CC(C)(c1ccccc1)c1ccc(OCCCN2CCNCC2)cc1`, the EC50 in assay [5] was 15.1 µM (active); in [6], 2.42 µM (active); in assay [2], 60.7 µM (active). In addition, the AC50 in [7] was 0.2 µM (active). Regarding `O=C1NC(c2ccccc2)=N/C1=C/c1ccco1`, the EC50 was 0.322 µM (active) in assay [3], 55.5 µM (active) in [4] and 5.71 µM (active) in the assay with H4. The like results for `Cc1cc(C)nc(NC(=O)CSc2nc3ccccc3s2)n1` were, in that order, 4.91 µM (active), 48.4 µM (active) and 15.1 µM (active). The like results for `CC1(C)CC(=O)c2sc(NC(=O)C(C)(C)C)nc2C1` were, in that order, 16 µM (active), 1.31 µM (active) and 18.5 µM (active). As for `O=C(Cn1[nH]c(=O)c2ccccc2c1=O)OCC(=O)N1CCCc2ccccc21`, the IC50 in the assay with H9c2 was > 79 µM (inactive). With `Cc1cc(Br)cc(/C=N/c2ccc(N3CCOCC3)cc2)c1O`, the IC50 was 14.6 µM (active) in assay [8] and 19.7 µM (active) in the assay on H9c2. `O=S(=O)(c1cccc(F)c1)N1CCN(c2nc(-c3cccnc3)nc3ccccc23)CC1`: the IC50 with H9c2 was > 79 µM (inactive). On to `CC(C)(C)OC(=O)NCC12C=CC(O1)C1C(=O)N(Cc3ccccc3)C(=O)C12` (stereo not given), for which the IC50 on Protein skinhead-1 is > 100 µM (inactive); in the assay on H9c2 it was > 79 µM (inactive). For the molecule `COc1ccc(-c2oc(=O)c3cc(OC)c(OC)cc3c2C#CCCO)cc1`, the IC50 with H9c2 is > 79 µM (inactive).

With `Cn1c(=O)n(/N=C/c2ccccc2)c2ccccc21`, the EC50 in assay [3] was 17.3 µM (active); in assay [4], 10.7 µM (active); in the assay with H4 it was 31 µM (active). As to `Cc1[nH]c2ccccc2c1CN1CCN(c2ccccn2)CC1`, the EC50 was > 60 µM (not active) in [5], 1.28 µM (active) in [6] and 84 µM (active) in [2]. Further, the AC50 in the assay with INS1 is 4.21 µM (active). On to `O=C(c1ccccc1)c1ccc2nc(N3CCN(C(=O)c4ccco4)CC3)c3nncn3c2c1`, for which, in the assay on H9c2, the IC50 is > 79 µM (inactive).

Take `CCCCn1/c(=N/C(=O)c2cccnc2)c(C#N)cc2c(=O)n3cccc(C)c3nc21`: the EC50 in assay [9] was > 53 µM (inactive). In addition, the IC50 with H9c2 is 26.2 µM (active). As for `CC1=C(Sc2nc3ccccc3[nH]2)C(=O)NC(C)(C)C1`, the EC50 in assay [2] is > 260 µM (inactive).

The record behind these values is ChEMBL document CHEMBL1201862, “PubChem BioAssay data set” (2004).
